Experimental data from patent publication US8263762B2, “Alkoxy-carbonyl-amino-alkynyl-adenosine compounds and derivatives thereof as A2AR agonists” (Dogwood Pharmaceuticals, Inc., priority 2009, dated 2012).
Blank lines part the entries; values can stand above or below the molecule they belong to.

How the values were obtained:
human neutrophils = experiment: Neutrophil oxidative activity (luminol enhanced chemiluminescence); format: cell-based; conditions: oxidative activity assay, purified human neutrophils, fMLP-stimulated chemiluminescence, read-out: Functional Activity
Excerpt: Chemiluminescence Methods: Luminol enhanced chemiluminescence, a measure of neutrophil oxidative activity, is dependent upon both superoxide production and mobilization of the granule enzyme myeloperoxidase. The light is emitted from unstable high-energy oxygen species such as hypochlorous acid and singlet oxygen generated by activated neutrophils.
Purified human neutrophils (2×10^6/ml) suspended in Hanks balanced salt solution containing 0.1% human serum albumin (HA), adenosine deaminase (1 U/mL) and rolipram (100 nM) were incubated (37 C) in a water bath for 15 min with or without rhTNF (10 U/ml). Following incubation 100 µL aliquots of the PMN were transferred to wells (White walled clear bottom 96 well tissue culture plates Costar #3670; 2 wells/condition) containing […] and luminol (final concentration […]) with or without adenosine agonist (final agonist concentrations 0.01-1000 nM). The plate was incubated 5 min (37 C) and then fMLP (50 l in HA; final concentration […]) was added to all wells.
Peak chemiluminescence was determined with a Victor 1420 Multilabel Counter in the chemiluminescence mode using the Wallac Workstation software. Data are presented as peak chemiluminescence as percent of activity in the absence of an adenosine agonist. The EC50 was determined using PRISM software. All compounds were tested with PMNs from three separate donors.
Effect of A2A Agonists on Neutrophil Oxidative Activity: f-met-leu-phe (fMLP), luminol, superoxide dismutase, cytochrome C, fibrinogen, adenosine deaminase, and trypan blue were obtained from Sigma Chemical. Ficoll-hypaque was purchased from ICN (Aurora, Ohio), and Cardinal Scientific (Santa Fe, N. Mex.) and Accurate Chemicals and Scientific (Westerbury, N.Y.). Endotoxin (lipopolysaccharide; E. coli K235) was from List Biologicals (Campbell, Calif.). Hanks balanced salt solution (HBSS), and limulus amebocyte lysate assay kit were from BioWittaker (Walkersville, Md.). Human serum albumin (HSA) was from Cutter Biological (Elkhart, Ind.). Recombinant human tumor necrosis factor-α was supplied by Dianippon Pharmaceutical Co. Ltd. (Osaka, Japan). ZM241385 (4-(2-[7-amino-2-(2-furyl)[1,2,4]triazolo[2,3-a][1,3,5]triazin-5-yl amino]ethyl)phenol) was a gift from Simon Poucher, Zeneca Pharmaceuticals, Cheshire, UK. Stock solutions (1 mM and 10 mM in DMSO) were made and stored at −20° C.
Human neutrophil preparation: Purified neutrophils (98% neutrophils and >95% viable by trypan blue exclusion) containing <1 platelet per 5 neutrophils and <50 pg/ml endotoxin (limulus amebocyte lysate assay) were obtained from normal heparinized (10 U/ml) venous blood by a one step Ficoll-hypaque separation procedure (A. Ferrante et al., J. Immunol. Meth., 36, 109 (1980)). […]

[1] = biological target: T1, recombinant human A2A receptors (Homo sapiens, UniProt P29274); experiment: Radioligand binding assay, A2A receptor; conditions: recombinant human A2A receptors in Sf9 cell membranes; competition binding
T1 construct: made in house; host or cells: Sf9 insect cells, viral (baculovirus) infection; membranes
Experimental: Cell culture and membrane preparation. Sf9 cells were cultured in Grace's medium supplemented with 10% fetal bovine serum, 2.5 μg/ml amphotericin B and 50 μg/ml gentamycin in an atmosphere of 50% N2/50% O2. Viral infection was performed at a density of 2.5×10^6 cells/mL with a multiplicity of infection of two for each virus used. Infected cells were harvested 3 days post-infection and washed twice in insect PBS (PBS pH 6.3). Cells were then resuspended in lysis buffer (20 mM HEPES pH 7.5, 150 mM NaCl, 3 mM MgCl2, 1 mM β-mercaptoethanol (BME), 5 μg/mL leupeptin, 5 μg/mL pepstatin A, 1 μg/mL aprotinin, and 0.1 mM PMSF) and snap frozen for storage at −80° C. Cells were thawed on ice, brought to 30 mL total volume in lysis buffer, and burst by N2 cavitation (600 psi for 20 minutes). A low-speed centrifugation was performed to remove any unlysed cells (1000×g for 10 minutes), followed by a high-speed centrifugation (17,000×g for 30 minutes). The pellet from the final centrifugation was homogenized in buffer containing 20 mM HEPES pH 8, 100 mM NaCl, 1% glycerol, 2 μg/mL leupeptin, 2 μg/mL pepstatin A, 2 μg/mL Aprotinin, 0.1 mM PMSF, and 10 μM GDP using a small glass homogenizer followed by passage through a 26 gauge needle. Membranes were aliquoted, snap frozen in liquid N2, and stored at −80° C. Membranes from cells stably expressing the human A1 AR(CHO K1 cells) or A3 AR (HEK 293 cells) were prepared as described (Robeva et al., 1996).
Radioligand Binding Assays. Radioligand binding to recombinant human A2A receptors in Sf9 cell membranes was performed using either the radiolabeled agonist, ^125I-APE (Luthin et al., 1995) or the radiolabeled antagonist, ^125I-ZM241385 (^125I-ZM). To detect the high affinity, GTPγS-sensitive state of A1 and A3 AR, we used the agonist, ^125I-ABA (Linden et al., 1985; Linden et al., 1993). Binding experiments were performed in triplicate with 5 μg (A2A) or 25 μg (A1 and A3) membrane protein in a total volume of 0.1 mL HE buffer (20 mM HEPES and 1 mM EDTA) withl U/mL adenosine deaminase and 5 mM MgCl2 with or without 50 μM GTPγS. Membranes were incubated with radioligands at room temperature for three hours (for agonists) or two hours (for antagonists) in Millipore Multiscreen® 96-well GF/C filter plates and assays were terminated by rapid filtration on a cell harvester (Brandel, Gaithersburg, Md.) followed by 4×150 μL washes over 30 seconds with ice cold 10 mM Tris-HCl, pH 7.4, 10 mM MgCl2. Nonspecific binding was measured in the presence of 50 μM NECA. Competition binding assays were performed as described (Robeva et al., 1996) using 0.5-1 nM ^125I-APE, ^125I-ZM241385, or ^125I-ABA. Sometimes it is important to change pipette tips following each serial dilution to prevent transfer on tips of potent hydrophobic compounds. The Ki values for competing compound binding to a single site were derived from IC50 values with correction for radioligand and competing compound depletion as described previously (Linden, 1982). • Linden J (1982) Calculating the Dissociation Constant of an Unlabeled Compound From the Concentration Required to Displace Radiolabel Binding by 50%. J Cycl Nucl Res 8: 163-172. • Linden J, Patel A and Sadek S (1985) [^125I]Aminobenzyladenosine, a New Radioligand With Improved Specific Binding to Adenosine Receptors in Heart. Circ Res 56: 279-284. • Linden J, Taylor H E, Robeva A S, Tucker A L, Stehle J H, Rivkees S A, Fink J S and Reppert S M (1993) Molecular Cloning and Functional Expression of a Sheep A3 Adenosine Receptor with Widespread Tissue Distribution. Mol Pharmacol 44: 524-532. • Luthin D R, Olsson R A, Thompson R D, Sawmiller D R and Linden J (1995) Characterization of Two Affinity States of Adenosine A2A Receptors With a New Radioligand, 2-[2-(4-Amino-3-[^125I]Iodophenyl)Ethylamino] Adenosine. Mol Pharmacol 47: 307-313. • Robeva A S, Woodard R, Luthin D R, Taylor H E and Linden J (1996) Double Tagging Recombinant A1- and A2A-Adenosine Receptors With Hexahistidine and the FLAG Epitope. […]

T1 sequence (P29274 whole entry): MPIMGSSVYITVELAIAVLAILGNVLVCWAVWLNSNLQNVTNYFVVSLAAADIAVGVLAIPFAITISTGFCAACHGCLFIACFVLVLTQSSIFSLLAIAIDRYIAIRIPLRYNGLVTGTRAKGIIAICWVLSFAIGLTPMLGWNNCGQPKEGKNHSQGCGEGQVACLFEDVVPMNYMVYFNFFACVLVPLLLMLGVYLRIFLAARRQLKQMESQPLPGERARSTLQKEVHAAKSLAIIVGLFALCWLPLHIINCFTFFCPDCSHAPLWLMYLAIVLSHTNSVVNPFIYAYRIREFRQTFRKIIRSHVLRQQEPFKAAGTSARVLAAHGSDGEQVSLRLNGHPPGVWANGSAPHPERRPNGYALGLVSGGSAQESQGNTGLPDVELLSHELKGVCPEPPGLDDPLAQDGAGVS

SMILES: CN(CC#Cc1nc(N)c2ncn([C@@H]3O[C@H](C(=O)NC4CC4)C(O)C3O)c2n1)C(=O)Oc1ccc(F)cc1 (some centres unmarked) [Example 4, N-Cyclopropyl 2-{3-[4-fluorophenoxycarbonyl(methyl)amino]propyn-1-yl}adenosine-5′-uronamide]
EC50 (human neutrophils): < 10 nM
Ki [1]: 11 to 100 nM

SMILES: COC(=O)N(C)CC#Cc1nc(N)c2ncn([C@@H]3O[C@H](C(=O)NC4CC4)C(O)C3O)c2n1 (some centres unmarked) [Example 1, N-Cyclopropyl 2-{3-[methoxycarbonyl(methyl)amino]propyn-1-yl}adenosine-5′-uronamide]
EC50 (human neutrophils): < 10 nM
Ki [1]: < 10 nM

SMILES: CN(CC#Cc1nc(N)c2ncn([C@@H]3O[C@H](C(=O)NC4CC4)C(O)C3O)c2n1)C(=O)Oc1ccccc1 (some centres unmarked) [Example 2, N-Cyclopropyl 2-{3-[phenoxycarbonyl(methyl)amino]propyn-1-yl}adenosine-5′-uronamide]
EC50 (human neutrophils): < 10 nM
Ki [1]: < 10 nM

SMILES: CCN(CC#Cc1nc(N)c2ncn([C@@H]3O[C@H](C(=O)NC4CC4)C(O)C3O)c2n1)C(=O)OC (some centres unmarked) [Example 6, N-Cyclopropyl 2-{3-[4-(ethyl(methoxycarbonyl)amino)]propyn-1-yl}adenosine-5′-uronamide]
EC50 (human neutrophils): < 10 nM
Ki [1]: < 10 nM

SMILES: COC(=O)N(CC#Cc1nc(N)c2ncn([C@@H]3O[C@H](C(=O)NC4CC4)C(O)C3O)c2n1)C1CCC1 (some centres unmarked) [Example 13, N-Cyclopropyl 2-{3-[4-(cyclobutyl(methoxycarbonyl)amino)]propyn-1-yl}adenosine-5′-uronamide]
EC50 (human neutrophils): < 10 nM
Ki [1]: 11 to 100 nM

SMILES: COC(=O)N(CC#Cc1nc(N)c2ncn([C@@H]3O[C@H](C(=O)NC4CC4)C(O)C3O)c2n1)C(C)C (some centres unmarked) [Example 8, N-Cyclopropyl 2-{3-[4-(isopropyl(methoxycarbonyl)amino)]propyn-1-yl}adenosine-5′-uronamide]
EC50 (human neutrophils): < 10 nM
Ki [1]: < 10 nM

SMILES: COC(=O)N(CC#Cc1nc(N)c2ncn([C@@H]3O[C@H](C(=O)NC4CC4)C(O)C3O)c2n1)Cc1ccccc1 (some centres unmarked) [Example 10, N-Cyclopropyl 2-{3-[4-(benzyl(methoxycarbonyl)amino)]propyn-1-yl}adenosine-5′-uronamide]
EC50 (human neutrophils): > 100 nM
Ki [1]: 11 to 100 nM

SMILES: CCOCCCN(CC#Cc1nc(N)c2ncn([C@@H]3O[C@H](C(=O)NC4CC4)C(O)C3O)c2n1)C(=O)OC (some centres unmarked) [Example 17, N-Cyclopropyl 2-{3-[4-((3-ethoxypropyl)(methoxycarbonyl)amino)]propyn-1-yl}adenosine-5′-uronamide]
EC50 (human neutrophils): > 100 nM
Ki [1]: 11 to 100 nM

SMILES: COCCCN(CC#Cc1nc(N)c2ncn([C@@H]3O[C@H](C(=O)NC4CC4)C(O)C3O)c2n1)C(=O)OC (some centres unmarked) [Example 16, N-Cyclopropyl 2-{3-[4-(methoxycarbonyl(3-methoxypropyl)amino)]propyn-1-yl}adenosine-5′-uronamide]
EC50 (human neutrophils): < 10 nM
Ki [1]: 11 to 100 nM

Now from value to molecule:

EC50 (human neutrophils): < 10 nM
Ki [1]: < 10 nM
SMILES: COC(=O)N(CC#Cc1nc(N)c2ncn([C@@H]3O[C@H](C(=O)NC4CC4)C(O)C3O)c2n1)C1CC1 (some centres unmarked) [Example 11, N-Cyclopropyl 2-{3-[4-(cyclopropyl(methoxycarbonyl)amino)]propyn-1-yl}adenosine-5′-uronamide]

EC50 (human neutrophils): < 10 nM
Ki [1]: < 10 nM
SMILES: CN(CC#Cc1nc(N)c2ncn([C@@H]3O[C@H](C(=O)NC4CC4)C(O)C3O)c2n1)C(=O)OCCOCc1ccccc1 (some centres unmarked) [Example 3, N-Cyclopropyl 2-{3-[2-((benzyloxy)ethoxycarbonyl)(methyl)amino]propyn-1-yl}adenosine-5′-uronamide]

EC50 (human neutrophils): < 10 nM
Ki [1]: < 10 nM
SMILES: COCCN(CC#Cc1nc(N)c2ncn([C@@H]3O[C@H](C(=O)NC4CC4)C(O)C3O)c2n1)C(=O)OC (some centres unmarked) [Example 15, N-Cyclopropyl 2-{3-[4-(methoxycarbonyl(2-methoxyethyl)amino)]propyn-1-yl}adenosine-5′-uronamide]

EC50 (human neutrophils): < 10 nM
Ki [1]: < 10 nM
SMILES: COC(=O)N(CC#Cc1nc(N)c2ncn([C@@H]3O[C@H](C(=O)NC4CC4)C(O)C3O)c2n1)CC1CC1 (some centres unmarked) [Example 12, N-Cyclopropyl 2-{3-[4-(cyclopropylmethyl(methoxycarbonyl)amino)]propyn-1-yl}adenosine-5′-uronamide]

EC50 (human neutrophils): < 10 nM
Ki [1]: < 10 nM
SMILES: COC(=O)N(CC#Cc1nc(N)c2ncn([C@@H]3O[C@H](C(=O)NC4CC4)C(O)C3O)c2n1)C1CCCC1 (some centres unmarked) [Example 14, N-Cyclopropyl 2-{3-[4-(cyclopentyl(methoxycarbonyl)amino)]propyn-1-yl}adenosine-5′-uronamide]

EC50 (human neutrophils): < 10 nM
Ki [1]: < 10 nM
SMILES: CCCN(CC#Cc1nc(N)c2ncn([C@@H]3O[C@H](C(=O)NC4CC4)C(O)C3O)c2n1)C(=O)OC (some centres unmarked) [Example 7, N-Cyclopropyl 2-{3-[4-(methoxycarbonyl(propyl)amino)]propyn-1-yl}adenosine-5′-uronamide]

EC50 (human neutrophils): < 10 nM
Ki [1]: < 10 nM
SMILES: COC(=O)N(CC#Cc1nc(N)c2ncn([C@@H]3O[C@H](C(=O)NC4CC4)C(O)C3O)c2n1)CC(C)C (some centres unmarked) [Example 9, N-Cyclopropyl 2-{3-[4-(isobutyl(methoxycarbonyl)amino)]propyn-1-yl}adenosine-5′-uronamide]
